Measured values as given in patent publication US6737383B1, “Herbicidal oxadiazolidines” (priority 1999, dated 2004).

Experiments:
wild buckwheat = experiment: Test E wild buckwheat; assay type: in vivo, Polygonum convolvulus; settings: Postemergence
Procedure: (§1) Compounds evaluated in this test were formulated in a non-phytotoxic solvent mixture which included a surfactant and applied to plants that were in the 1- to 4-leaf stage (postemergence application). A mixture of sandy loam soil and greenhouse potting mix in a 60:40 ratio was used for the postemergence test.
(§2) Plantings of these crops and weed species were adjusted to produce plants of appropriate size for the postemergence test. All plant species were grown using normal greenhouse practices. Crop and weed species include annual bluegrass (Poa annua), blackgrass (Alopecurus myosuroides), black nightshade (Solanum nigra), chickweed (Stellaria media), common poppy (Papaver rhoeas), deadnettle (Lamium amplexicaule), downy brome (Bromus tectorum), field violet (Viola arvensis), galium (Galium aparine), green foxtail (Setaria viridis), Italian ryegrass (Lolium multiflorum), jointed goatgrass (Aegilops cylindrica), kochia (Kochia scoparia), lambsquarters (Chenopodium album), littleseed canarygrass (Phalaris minor), rape (Brassica napus), redroot pigweed (Amaranthus retroflexus), Russian thistle (Salsola kali), scentless chamomile (Matricaria inodora), spring barley (Hordeum vulgare), sugar beet (Beta vulgaris), sunflower (Helianthus annuus), ivyleaf speedwell (Veronica hederaefolia), spring wheat (Triticum aestivum), winter wheat (Triticum aestivum), wild buckwheat (Polygonum convolvulus), wild mustard (Sinapis arvensis), wild oat (Avena fatua), windgrass (Apera spica-venti) and winter barley (Hordeum vulgare).
(§3) Treated plants and untreated controls were maintained in a greenhouse for approximately 21 to 28 days, after which all treated plants were compared to untreated controls and visually evaluated. […] A dash response (-) means no test result.

chickweed [1] = experiment: Test E chickweed; assay type: in vivo, Stellaria media; settings: Preemergence
wild mustard = experiment: Test E wild mustard; assay type: in vivo, Sinapis arvensis; settings: Postemergence
Procedure, shortened: (§4)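 Visually scored herbicidal effect relative to untreated plants, taken ~21 to 28 days post-application; compound in solvent with surfactant; postemergence sprays at the 1- to 4-leaf stage.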

redroot pigweed = experiment: Test E redroot pigweed; assay type: in vivo, Amaranthus retroflexus; settings: Preemergence
blackgrass = experiment: Test E blackgrass; assay type: in vivo, Alopecurus myosuroides; settings: Postemergence
Procedure: as §1, §2, §3

jointed goatgrass = experiment: Test E jointed goatgrass; assay type: in vivo, Aegilops cylindrica; settings: Preemergence
spring wheat = experiment: Test E spring wheat; assay type: in vivo, Triticum aestivum; settings: Postemergence
Procedure, shortened: as §4

Italian ryegrass = experiment: Test E Italian ryegrass; assay type: in vivo, Lolium multiflorum; settings: Postemergence
Procedure, shortened: as §4

black nightshade = experiment: Test E black nightshade; assay type: in vivo, Solanum nigra; settings: Preemergence
sunflower = experiment: Test E sunflower; assay type: in vivo, Helianthus annuus; settings: Postemergence
Procedure: as §2, with “Plantings of these crops and weed species were adjusted to produce plants of appropriate size for the postemergence test.” left out
as §3

littleseed canarygrass = experiment: Test E littleseed canarygrass; assay type: in vivo, Phalaris minor; settings: Postemergence
Procedure: as §1, §2, §3

chickweed [2] = experiment: Test E chickweed; assay type: in vivo, Stellaria media; settings: Postemergence
Procedure: as §1, §2, §3

field violet = experiment: Test E field violet; assay type: in vivo, Viola arvensis; settings: Preemergence
annual bluegrass = experiment: Test E annual bluegrass; assay type: in vivo, Poa annua; settings: Preemergence
Spanishneedles = experiment: Test D Spanishneedles; assay type: in vivo, Bidens bipinnata; settings: Postemergence, 0 to 100 scale; for Spanishneedles plant response rating: 0 no injury, 100 complete control
guineagrass = experiment: Test D guineagrass; assay type: in vivo, Panicum maximum; settings: Postemergence, 0 to 100 scale
tall mallow = experiment: Test D tall mallow; assay type: in vivo, Malva sylvestris; settings: Postemergence, 0 to 100 scale; for Tall Mallow plant response rating: 0 no injury, 100 complete control
pitted morningglory = experiment: Test D pitted morningglory; assay type: in vivo, Ipomoea lacunosa; settings: Postemergence, 0 to 100 scale
common pursiane = experiment: Test D common purslane; assay type: in vivo, Portulaca oleracea; settings: Postemergence, 0 to 100 scale
surinam grass = experiment: Test D surinam grass; assay type: in vivo, Brachiaria decumbens; settings: Postemergence, 0 to 100 scale; for Surinam grass plant response rating: 0 no injury, 100 complete control
[3] = Rate 250 g/ha, 0 to 100 scale (0 no effect, 100 complete control)
[4] = Rate 500 g/ha, 0 to 100 scale, 0 no effect, 100 complete control
[5] = Rate 125 g/ha, 0 to 100 scale (0 no effect, 100 complete control)
[6] = Rate 500 g/ha, 0 to 100 scale where 0 is no effect and 100 is complete control
[7] = Rate 64 g/ha, 0 no injury, 100 complete control
[8] = Rate 125 g/ha, 0 no injury, 100 complete control

## CC(C)N(C(=O)n1oc(=O)n(C(C)C)c1=O)c1ccc(F)cc1F [Compound 109]
Wild buckwheat; Rate 125 g/ha, 0 to 100 scale
  Plant response rating, Wild buckwheat: 10
Wild buckwheat; [3]
  Plant response rating, Wild buckwheat: 20
Wild buckwheat; [4]
  Plant response rating, Wild buckwheat: 10
Chickweed [1]; [5]
  Plant response rating, Chickweed: 40
Chickweed [1]; [6]
  Plant response rating, Chickweed: 100
Wild mustard; Rate 125 g/ha, 0 to 100 scale
  Plant response rating, Wild mustard: 40
Wild mustard; [3]
  Plant response rating, Wild mustard: 50
Wild mustard; [4]
  Plant response rating, Wild mustard: 20
Redroot pigweed; [5]
  Plant response rating, Redroot pigweed: 70
Redroot pigweed; Rate 250 g/ha, 0 to 100 scale
  Plant response rating, Redroot pigweed: 100
Redroot pigweed; [6]
  Plant response rating, Redroot pigweed: 100
blackgrass; Rate 125 g/ha, 0 to 100 scale
  Plant response rating, Blackgrass: 30
blackgrass; [3]
  Plant response rating, Blackgrass: 10
blackgrass; [4]
  Plant response rating, Blackgrass: 70
Jointed goatgrass; [5]
  Plant response rating, Jointed goatgra: 20
Jointed goatgrass; Rate 250 g/ha, 0 to 100 scale
  Plant response rating, Jointed goatgra: 65
Jointed goatgrass; [6]
  Plant response rating, Jointed goatgra: 70
Spring wheat; Rate 125 g/ha, 0 to 100 scale
  Plant response rating, Spring Wheat: 30
Spring wheat; [3]
  Plant response rating, Spring Wheat: 20
Spring wheat; [4]
  Plant response rating, Spring Wheat: 10
Italian ryegrass; Rate 125 g/ha, 0 to 100 scale
  Plant response rating, I. Ryegrass: 10
Italian ryegrass; [3]
  Plant response rating, I. Ryegrass: 10
Italian ryegrass; [4]
  Plant response rating, I. Ryegrass: 65
Black nightshade; [5]
  Plant response rating, Blk nightshade: 75
Black nightshade; Rate 250 g/ha, 0 to 100 scale
  Plant response rating, Blk nightshade: 90
Black nightshade; [6]
  Plant response rating, Blk nightshade: 90
sunflower; Rate 125 g/ha, 0 to 100 scale
  Plant response rating, Sunflower: 30
sunflower; [3]
  Plant response rating, Sunflower: 30
sunflower; [4]
  Plant response rating, Sunflower: 40
Littleseed canarygrass; Rate 125 g/ha, 0 to 100 scale
  Plant response rating, LS canarygrass: 25
Littleseed canarygrass; [3]
  Plant response rating, LS canarygrass: 50
Littleseed canarygrass; [4]
  Plant response rating, LS canarygrass: 65
Chickweed [2]; Rate 125 g/ha, 0 to 100 scale
  Plant response rating, Chickweed: 0
Chickweed [2]; [3]
  Plant response rating, Chickweed: 0
Chickweed [2]; [4]
  Plant response rating, Chickweed: 10
Field violet; [5]
  Plant response rating, Field violet: 50
Field violet; Rate 250 g/ha, 0 to 100 scale
  Plant response rating, Field violet: 15
Field violet; [6]
  Plant response rating, Field violet: 20
Annual bluegrass; [5]
  Plant response rating, Annual bluegras: 40
Annual bluegrass; Rate 250 g/ha, 0 to 100 scale
  Plant response rating, Annual bluegras: 90
Annual bluegrass; [6]
  Plant response rating, Annual bluegras: 75

## CC(C)N(C(=O)n1oc(=O)n(C2CC2)c1=O)c1ccc(F)cc1F [Compound 299]
Spanishneedles; Rate 64 g/ha
  Spanishneedles plant response rating: 0
Spanishneedles; Rate 125 g/ha
  Spanishneedles plant response rating: 0
Spanishneedles; Rate 250 g/ha
  Plant response rating, Spanishneedles: 20
Spanishneedles; Rate 500 g/ha
  Plant response rating, Spanishneedles: 100
guineagrass; [7]
  Guineagrass plant response rating: 20
  Plant response rating, Guineagrass: 0
guineagrass; [8]
  Plant response rating, Guineagrass: 80
guineagrass; Rate 250 g/ha
  Plant response rating, Guineagrass: 100
guineagrass; Rate 500 g/ha
  Plant response rating, Guineagrass: 100
Tall mallow; Rate 64 g/ha
  Tall Mallow plant response rating: 30
Tall mallow; Rate 125 g/ha
  Tall Mallow plant response rating: 90
Tall mallow; Rate 250 g/ha
  Plant response rating, Tall Mallow: 70
Tall mallow; Rate 500 g/ha
  Plant response rating, Tall Mallow: 100
Pitted morningglory; [7]
  Plant response rating, P. morninglory: 0
Pitted morningglory; [8]
  Plant response rating, P. morninglory: 0
Pitted morningglory; Rate 250 g/ha
  Plant response rating, P. morninglory: 0
Pitted morningglory; Rate 500 g/ha
  Plant response rating, P. morninglory: 0
Common pursiane; [7]
  Plant response rating, C. purslane: 0
Common pursiane; [8]
  Plant response rating, C. purslane: 0
Common pursiane; Rate 250 g/ha
  Plant response rating, C. purslane: 0
Common pursiane; Rate 500 g/ha
  Plant response rating, C. purslane: 0
Surinam grass; Rate 64 g/ha
  Surinam grass plant response rating: 50
Surinam grass; Rate 125 g/ha
  Surinam grass plant response rating: 100
Surinam grass; Rate 250 g/ha
  Plant response rating Surinam grass: 100
Surinam grass; Rate 500 g/ha
  Plant response rating Surinam grass: 100
